Results taken from patent US20260151375A1, “CDK2 INHIBITORS AND METHODS OF USING THE SAME” (Cedilla Therapeutics, Inc., priority 2022, published 2026).
Where two headings read alike, the source gives them in different places.

Columns and labels:
[1] = test system: Kuramochi cells; test: IncuCyte Kuramochi Assay (cell proliferation); format: cell-based; settings: Kuramochi cells labeled with mApple-H2B, cell count, read-out: IncuCyte - Kuramochi RB-WT: IC50
Experimental: IncuCyte® assay was used to measure the effect of disclosed compounds on cell proliferation. Fluorescent microscopy images of cells were taken immediately after compound treatment and 72 hours later. Image analysis software was used to obtain cell counts as a function of compound concentration. Kuramochi cells labeled with mApple-H2B were seeded on 384-well assay-ready plates. Plates were placed in an IncuCyte® (Sartorius) and scanned at 0 and 72 hours. IncuCyte® software was used to count the number of fluorescent nuclei in each well. The fold change in cell count from 0 to 72 hours in wells treated with increasing compounds concentrations (10 pts, ½ log dilution, 20 μM top concentration) was normalized to DMSO control wells. The normalized cell counts were fit with dose response curves and a […] was calculated.

[2] = target: T1, CDK2/Cyclin E1 (Homo sapiens, UniProt P24941); test: Caliper Assay (LabChip EZ Reader mobility shift assay), inhibition of CDK2/Cyclin E1 activity; format: biochemical; settings: 2.5 nM CDK2/Cyclin E1(14-475), 100 μM ATP, 30 min preincubation; read-out: Caliper Assay (CDK2/CCNE1): IC50
T1 construct: purchased 14-475
Experimental: Inhibition of CDK2/Cyclin E1 activity in the presence of compounds of the present disclosure was evaluated using a Caliper LabChip® EZ Reader mobility shift assay. In the assay, activated CDK2/Cyclin E1 catalyzes the phosphorylation of a fluorescently tagged peptide 5-FAM-QSPKKG-CONH2 (PerkinElmer, FL Peptide 18) which induces a difference in capillary electrophoresis mobility. The peptide substrate and product were measured, and the conversion ratio was used to determine the inhibition (as % activity and IC50 values) of CDK2/Cyclin E1. Reactions contained 50 mM HEPES pH 7.5, 10 mM MgCl2, 1 mM EDTA, 2 mM DTT, 0.01% Brij35, 0.5 mg/mL BSA, 0.1% DMSO, 2.5 nM CDK2/Cyclin E1(14-475), 100 μM ATP, and 1.5 μM fluorescent peptide substrate.
Dose titrations of inhibitors in 100% DMSO were combined with 3.25 nM CDK2/Cyclin E1(14-475) and 130 μM of ATP in reaction buffer. The mixtures were incubated for 30 minutes before the addition of fluorescent peptide substrate to initiate the kinase reaction. The final conditions were 2.5 nM CDK2/Cyclin E1(14-475), 100 μM ATP, and 1.5 μM fluorescent peptide. The reactions were stopped after 100 minutes with the addition of EDTA (6 mM final EDTA concentration). The stopped reactions were analyzed on a Caliper LabChip© EZ Reader II. The conversion ratios were normalized to yield % activity, plotted against compound concentration, and fit to a four-parameter equation to determine the IC50 for each compound.

Compound | IC50 ([1]; 72 h) [µM] | IC50 [2] [µM] | IC50 ([1]; 72 hours) [µM]
Cc1cc(C)n(C(C)c2nc(C3CN(C(=O)c4cnn(Cc5ccccc5)c4)CC34CN(C(=O)[C@H]3CC3(C)C)C4)no2)n1 (single isomer, unassigned) [I-2] | 5 to 10 |  | 
CC(c1nc(C2CN(C(=O)c3cncs3)CC23CN(C(=O)[C@H]2CC2(C)C)C3)no1)n1ccc(C2CCCC2)n1 (single isomer, unassigned) [I-36 1st] | > 10 | 0.01 to 0.1 | 
CC(c1nc(C2CN(C(=O)c3cncs3)CC23CN(C(=O)[C@H]2CC2(C)C)C3)no1)n1ccc(C2CCCC2)n1 (single isomer, unassigned) [I-36 4th] |  | 0.01 to 0.1 | > 10
CC(c1nc(C2CN(C(=O)c3cncs3)CC23CN(C(=O)[C@H]2CC2(C)C)C3)no1)n1ccc(C2CCCC2)n1 (single isomer, unassigned) [I-36 5th] |  | ≤ 0.01 | > 10
CC1(C)CC1C(=O)N1CC2(CN(C(=O)c3cncs3)CC2(F)c2nnc(C(F)(F)c3ccc(Cl)c(Cl)c3)o2)C1 (single isomer, unassigned) [I-38 1st] | > 10 | > 10 | 
CC1(C)C[C@@H]1C(=O)N1CC2(CN(C(=O)c3cncs3)CC2(F)c2nnc(C(F)(F)c3ccc(Cl)c(Cl)c3)o2)C1 (single isomer, unassigned) [I-38 2nd] | > 10 | 1 to 10 | 
CC1(C)C[C@@H]1C(=O)N1CC2(CN(C(=O)c3cncs3)CC2(F)c2nnc(C(F)(F)c3ccc(Cl)c(Cl)c3)o2)C1 (single isomer, unassigned) [I-38 3rd] |  | > 10 | > 10
CC1(C)C[C@@H]1C(=O)N1CC2(CN(C(=O)c3cnccn3)CC2c2nnc(C(F)(F)c3ccc(Cl)c(Cl)c3)o2)C1 (single isomer, unassigned) [I-45 1st] | > 10 | 0.1 to 1 | 
O=C(c1onc2ccccc12)N1CC(c2nnc(C(F)(F)c3ccc(Cl)c(Cl)c3)o2)C2(C1)CN(C(=O)[C@H]1CC1(F)F)C2 (single isomer, unassigned) [I-151 1st] | > 10 | > 10 | 
O=C(c1onc2ccccc12)N1CC(c2nnc(C(F)(F)c3ccc(Cl)c(Cl)c3)o2)C2(C1)CN(C(=O)[C@H]1CC1(F)F)C2 (single isomer, unassigned) [I-151 2nd] |  | 1 to 10 | > 10
CC1(C)C[C@@H]1C(=O)N1CC2(CN(C(=O)c3cnn(Cc4ccccc4)c3)CC2c2noc(Cc3ccc(Cl)cc3)n2)C1 (some centres unmarked) [I-1] | 5 to 10 | 0.1 to 1 | 
CCO[C@H]1C[C@@H](c2nc(C3CN(C(=O)c4cnn(Cc5ccccc5)c4)CC34CN(C(=O)[C@H]3CC3(C)C)C4)no2)C1 (some centres unmarked) [I-3] | > 10 | 1 to 10 | 
CC1(C)C[C@@H]1C(=O)N1CC2(CN(C(=O)c3cnn(Cc4ccccc4)c3)CC2c2nnc(Cc3ccc(Cl)c(Cl)c3)o2)C1 (some centres unmarked) [I-4] |  | 1 to 10 | > 10
CC1(C)C[C@@H]1C(=O)N1CC2(CN(C(=O)c3cnn(Cc4ccccc4)c3)CC2c2nnc(Nc3ccc(Br)cc3)o2)C1 (stereo partly drawn) [I-5, (1-benzyl-1H-pyrazol-4-yl)(8-(5-((4-bromophenyl)amino)-1,3,4-oxadiazol-2-yl)-2-((S)-2,2-dimethylcyclopropane-1-carbonyl)-2,6-diazaspiro[3.4]octan-6-yl)methanone] | > 10 | 1 to 10 | 
CC1(C)C[C@@H]1C(=O)N1CC2(CN(C(=O)c3cnn(Cc4ccccc4)c3)CC2c2nnc(Cc3ccc(Cl)c(Cl)c3)[nH]2)C1 (stereo partly drawn) [I-6, (1-benzyl-1H-pyrazol-4-yl)(8-(5-(3,4-dichlorobenzyl)-4H-1,2,4-triazol-3-yl)-2-((S)-2,2-dimethylcyclopropane-1-carbonyl)-2,6-diazaspiro[3.4]octan-6-yl)methanone] | 5 to 10 | 1 to 10 | 
CC1(C)C[C@@H]1C(=O)N1CC2(CN(C(=O)c3cnn(Cc4ccccc4)c3)CC2c2cc(NC(=O)C3CC3)on2)C1 (stereo partly drawn) [I-7, N-(3-(6-(1-benzyl-1H-pyrazole-4-carbonyl)-2-((S)-2,2-dimethylcyclopropane-1-carbonyl)-2,6-diazaspiro[3.4]octan-8-yl)isoxazol-5-yl)cyclopropanecarboxamide] | 5 to 10 | 0.1 to 1 | 
CC1(C)C[C@@H]1C(=O)N1CC2(CN(C(=O)c3cnn(Cc4ccccc4)c3)CC2c2ncc(Cc3ccc(Cl)cc3)o2)C1 (stereo partly drawn) [I-8, (1-benzyl-1H-pyrazol-4-yl)(8-(5-(4-chlorobenzyl)oxazol-2-yl)-2-((S)-2,2-dimethylcyclopropane-1-carbonyl)-2,6-diazaspiro[3.4]octan-6-yl)methanone] | 5 to 10 | 0.1 to 1 | 

Compound | IC50 ([1]; 72 h) [µM] | IC50 [2] [µM] | IC50 ([1]; 72 hours) [µM]
Cc1cc(C)n(C(C)c2nc(C3CN(C(=O)c4cncs4)CC34CN(C(=O)[C@H]3CC3(C)C)C4)no2)n1 (stereo partly drawn) [I-9, (8-(5-(1-(3,5-dimethyl-1H-pyrazol-1-yl)ethyl)-1,2,4-oxadiazol-3-yl)-2-((S)-2,2-dimethylcyclopropane-1-carbonyl)-2,6-diazaspiro[3.4]octan-6-yl)(thiazol-5-yl)methanone] | > 10 | 1 to 10 | 
Cc1ccc(CNC(=O)c2coc(C3CN(C(=O)c4cnn(Cc5ccccc5)c4)CC34CN(C(=O)[C@H]3CC3(C)C)C4)n2)nn1 (some centres unmarked) [I-10] | > 10 | > 10 | 
C[C@@H](NC(=O)c1coc(C2CN(C(=O)c3cnn(Cc4ccccc4)c3)CC23CN(C(=O)[C@H]2CC2(C)C)C3)n1)c1ccccc1 (some centres unmarked) [I-11] | ≤ 0.5 | 1 to 10 | 
CC1(C)C[C@@H]1C(=O)N1CC2(CN(C(=O)c3cnn(Cc4ccccc4)c3)CC2c2nnc(CC3CCOCC3)o2)C1 (some centres unmarked) [I-12] | > 10 | 1 to 10 | 
Cc1cc(C)n(Cc2nnc(C3CN(C(=O)c4cnn(Cc5ccccc5)c4)CC34CN(C(=O)[C@H]3CC3(C)C)C4)o2)n1 (some centres unmarked) [I-13] | > 10 | 1 to 10 | 
CC1(C)C[C@@H]1C(=O)N1CC2(CN(C(=O)c3cnn(Cc4ccccc4)c3)CC2c2nnc(Cc3cncnc3)o2)C1 (stereo partly drawn) [I-14, (1-benzyl-1H-pyrazol-4-yl)(2-((S)-2,2-dimethylcyclopropane-1-carbonyl)-8-(5-(pyrimidin-5-ylmethyl)-1,3,4-oxadiazol-2-yl)-2,6-diazaspiro[3.4]octan-6-yl)methanone] | > 10 | 1 to 10 | 
CC1(C)C[C@@H]1C(=O)N1CC2(CN(C(=O)c3cnn(Cc4ccccc4)c3)C[C@@H]2c2nnc(Cc3ccc(Cl)c(Cl)c3)o2)C1 [I-16, (1-benzyl-1H-pyrazol-4-yl)((R)-8-(5-(3,4-dichlorobenzyl)-1,3,4-oxadiazol-2-yl)-2-((S)-2,2-dimethylcyclopropane-1-carbonyl)-2,6-diazaspiro[3.4]octan-6-yl)methanone] | > 10 | 1 to 10 | 
CC1(C)C[C@@H]1C(=O)N1CC2(CN(C(=O)c3cnn(Cc4ccccc4)c3)CC2c2nnc(CCC3CCC(F)(F)CC3)o2)C1 (some centres unmarked) [I-17] | > 10 | 0.1 to 1 | 
Cc1cc(C)n(C(C)c2nnc(C3CN(C(=O)c4cnn(Cc5ccccc5)c4)CC34CN(C(=O)[C@H]3CC3(C)C)C4)o2)n1 (some centres unmarked) [I-18] | > 10 | 0.1 to 1 | 
CC1(C)C[C@@H]1C(=O)N1CC2(CN(C(=O)c3cnn(Cc4ccccc4)c3)CC2c2nnc(CC3CCC(F)(F)CC3)o2)C1 (some centres unmarked) [I-20] | > 10 | 1 to 10 | 
Cc1cc(C)n([C@@H](C)c2nc(C3CN(C(=O)c4cnn(Cc5ccccc5)c4)CC34CN(C(=O)[C@H]3CC3(C)C)C4)no2)n1 (stereo partly drawn) [I-21, (1-benzyl-1H-pyrazol-4-yl)(8-(5-(1-(3,5-dimethyl-1H-pyrazol-1-yl)ethyl)-1,2,4-oxadiazol-3-yl)-2-((S)-2,2-dimethylcyclopropane-1-carbonyl)-2,6-diazaspiro[3.4]octan-6-yl)methanone] | > 10 | 0.1 to 1 | 
Cc1ccc(Cc2nnc(C3CN(C(=O)c4cnn(Cc5ccccc5)c4)CC34CN(C(=O)[C@H]3CC3(C)C)C4)o2)nn1 (some centres unmarked) [I-22] | > 10 | 1 to 10 | 
CC1(C)C[C@@H]1C(=O)N1CC2(CN(C(=O)c3cnn(Cc4ccccc4)c3)CC2c2nnc(Cc3ccncc3)o2)C1 (some centres unmarked) [I-23] | > 10 | 0.1 to 1 | 
CC1(C)C[C@@H]1C(=O)N1CC2(CN(C(=O)c3cnn(Cc4ccccc4)c3)CC2c2nnc(Cc3ccc(Cl)c(Cl)c3)o2)C1 (some centres unmarked) [I-24] | 5 to 10 | 0.1 to 1 | 
CC1(C)C[C@@H]1C(=O)N1CC2(CN(C(=O)c3cncs3)CC2c2nnc(Cc3cccc(C4CCOCC4)n3)o2)C1 (some centres unmarked) [I-25] | > 10 | 0.1 to 1 | 
CC1(C)C[C@@H]1C(=O)N1CC2(CN(C(=O)c3cncs3)CC2c2nnc(Cc3cc4ccccc4[nH]3)o2)C1 (some centres unmarked) [I-26] | > 10 | 1 to 10 | 
